The values that follow come from US8871789B2, “Method of preventing or treating viral infection” (The United States of America, as represented by the …, priority 2010, dated 2014).

Assay type in all cases: cell-based
Experiment [1] deals with HSV-1. The experiment is described as follows: HSV-1 lytic viral yields from HFF cells. Set-up: reduction of viral yields: dose or concentration left out as unconfirmed. The following applies: HFF cells, HSV-1 0.1 PFU per cell, 24 hours; FIG. 14. The method, then:
FIG. 14 is a bar graph showing viral yields from HFF cells treated with DMSO or ML324 for 3 hours and infected with HSV-1 (0.1 PFUper cell) for 24 hours in the presence of the drugs. *P<0.004, one-way ANOVA with Dunnett's post hoc test. Data are means±SEM.
HSV-1 lytic viral yields decrease in the presence of DMOG (FIG. 10). HFF cells were pretreated with DMSO control or JMJD2 inhibitor DMOG for 5 hrs and infected with 0.1 pfu/cell of HSV-1 for 24 hrs in the presence of DMSO or DMOG. The yield of infectious virus derived from each treatment were determined by tittering on Vero cells according to standard procedures.

Experiment [2] deals with HSV-1. The experiment is described as follows: HSV-1 IE mRNA levels in infected HFF cells. The method, then: FIG. 13 is a line graph showing viral IE (ICP4, ICP27, and ICP22) and control (S15, Sp1, and TBP) mRNA levels in HFF cells treated with DMSO or the indicated concentrations of ML324 for 3 hours and infected with HSV-1 (0.1 PFU per cell) for 3 hours. *P<0.0001, two-way ANOVA with Tukey's post hoc test. Data are means±SEM.
HSV-1 IE mRNA levels of ICP4 and ICP27 decrease in cells infected in the presence of DMOG. Human foreskin fibroblast (HFF) cells were infected with HSV-1 at 0.1 PFU/cell for 3 hrs in the presence of increasing concentrations of DMOG. Cells were harvested and the levels of viral IE (ICP4, ICP27) and cell control (s15) mRNAs were assessed by qRT-PCR.
All experiments were performed as described in Liang et al., Sci. Transl. Med. 5, 167ra5 (2013). N-(3-(dimethylamino)propyl)-4-(8-hydroxyquinolin-6-yl)benzamide (designated ML324) has the following characteristics: N-(3-(dimethylamino)propyl)-4-(8-hydroxyquinolin-6-yl)benzamide (1). LC-MS: rt (min)=3.033; ^1H NMR (400 MHz, DMSO-d6) δ 1.84-1.98 (m, 2H), 2.79 (s, 3H), 2.80 (s, 3H), 3.12 (ddd, J=10.2 Hz, 5.4 Hz and 5.2 Hz, 2H), 3.37 (q, 2H), 7.50 (s, 1H), 7.66 (dd, J=8.2 Hz and 4.3 Hz, 1H), 7.84 (s, 1H), 7.88-7.94 (m, 2H), 7.96-8.02 (m, 2H), 8.50 (d, J=8.2 Hz, 1H), 8.71 (t, J=5.6 Hz, 1H), 8.90 (d, J=4.1 Hz, 1H), 9.34 (brs, 1H); HRMS (ESI) m/z (M+H)^+ C21H24N3O2, 350.1867. found 350.1863.

Experiment [3] concerns HSV-1. The experiment is described as follows: MRC-5 cells infected with HSV-1 at high MOI (IE mRNA, viral yields). The method, then: FIG. 15 is a bar graph showing MRC-5 cells treated with DMSO or 50 mM ML324 that were infected with HSV-1 at the indicated multiplicity of infection (MOI). Viral IE and cellular mRNA levels were quantitated at 2 hours after infection. *P<0.0001, two-way ANOVA with Tukey's post hoc test. Data are means±SEM.
FIG. 16 is a bar graph showing MRC-5 cells treated with DMSO or 50 mM ML324 that were infected with HSV-1 at the indicated MOI. Viral yields were determined at 24 hours after infection. *P<0.0001, two-way ANOVA with Tukey's post hoc test. Data are means±SEM.

A word on the IC50: it is the concentration that gives 50% inhibition.

As to `CN(C)CCCNC(=O)c1ccc(-c2cc(O)c3ncccc3c2)cc1` [Compound 4, N-(3-(dimethylamino)propyl)-4-(8-hydroxyquinolin-6-yl)benzamide], the “reduction of viral yields” value in the experiment with HSV-1 [1] is given as roughly 5 logs. In addition, in the experiment on HSV-1 [2] (Human alphaherpesvirus 1, HFF, 3 h, read-out: IC50 for reducing IE gene expression), the IC50 was roughly 10 µM. In addition, the “efficiency relative to DMOG in reducing IE gene expression” value in the experiment with HSV-1 [2] (ML324 versus DMOG) is recorded as roughly 75 fold. Further, the “viral IE gene transcription at high multiplicity of infection” value in the experiment on HSV-1 [3] (50 mM ML324, 2 hours after infection, FIG. 15) was “blocked”. For the same compound, the “viral yields at high multiplicity of infection” value in the experiment on HSV-1 [3] (50 mM ML324, 24 hours after infection, FIG. 16) was “reduced”.
